Reference: ChEMBL document CHEMBL1201862, “PubChem BioAssay data set” (2004)
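How tested: cells in 96-well plates exposed to compound for 48 hours at five concentrations. GI50 marks 50% less growth.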 The source made the active and inactive calls. No stated cut-off is given here; in the data, active = GI50 up to about 1.1 µM and inactive = higher.

Assays:
Assay in all cases: NCI tumour cell line growth inhibition, 48 h
[1] = tested on: IGROV-1
[2] = tested on: K562
[3] = tested on: KM12
[4] = tested on: LOX IMVI
[5] = tested on: M14
[6] = tested on: MCF7
[7] = tested on: Malme-3M
[8] = tested on: NCI-H226
[9] = tested on: NCI-H23
[10] = tested on: NCI-H460
[11] = tested on: OVCAR-3
[12] = tested on: RXF 393
[13] = tested on: SF-268
[14] = tested on: SF-295
[15] = tested on: SK-MEL-5
[16] = tested on: SK-OV-3
[17] = tested on: SN12C
[18] = tested on: SW-620
[19] = tested on: TK-10
[20] = tested on: U-251

Measured: GI50

CN(C)Cc1cc(Cl)c(O)c(CN(C)C)c1
inactive: [1] > 100 µM | [2] > 100 µM | [3] > 100 µM | [4] > 100 µM | [5] > 100 µM | [6] > 100 µM | [7] > 100 µM | [8] > 100 µM | [9] > 100 µM | [10] > 100 µM | [11] > 100 µM | [12] > 100 µM | [13] > 100 µM | [14] > 100 µM | [15] > 100 µM | [16] > 100 µM | [17] > 100 µM | [18] > 100 µM | [19] > 100 µM | [20] > 100 µM

CC(C)=CCC[C@@H](C)C1=C(Nc2ccccc2F)C(=O)C(C)=C(O)C1=O
inactive: [1] 4.54 µM | [2] 4.45 µM | [3] 4.16 µM | [4] 4.78 µM | [5] 14.2 µM | [6] 9.95 µM | [7] 7.6 µM | [8] 5.3 µM | [9] 3.66 µM | [10] 3.92 µM | [11] 4.51 µM | [12] 16.8 µM | [13] 5.47 µM | [14] 3.65 µM | [15] 3.18 µM | [16] 6.47 µM | [17] 6.97 µM | [18] 5.98 µM | [19] 5.82 µM | [20] 8.49 µM

COC(=O)C1=C(C)NC(C)=C(C(=O)OC)C1c1cccc(NO)c1
inactive: [1] 16.7 µM | [2] 4.76 µM | [3] 15.9 µM | [4] 16 µM | [5] 18.9 µM | [6] 19 µM | [7] 16.4 µM | [8] 15.2 µM | [9] 16.3 µM | [10] 15.1 µM | [11] 16 µM | [12] 13.9 µM | [13] 16.6 µM | [14] 25.9 µM | [15] 15.5 µM | [16] > 100 µM | [17] 18.5 µM | [18] 13.7 µM | [19] 14.2 µM | [20] 16.1 µM

NC(=O)CN1CCN(c2nc(N3CCCC3)c3nc(Cl)c(NCc4ccccc4)nc3n2)CC1
inactive: [1] 12.2 µM | [2] 9.86 µM | [3] 10.6 µM | [4] 9.33 µM | [5] 9.91 µM | [6] 8.87 µM | [7] 8.65 µM | [8] 11.8 µM | [9] 13.7 µM | [10] 9.12 µM | [11] 8.39 µM | [12] 7.96 µM | [13] 8.63 µM | [14] 8.89 µM | [15] 8.45 µM | [16] 9.91 µM | [17] 9.48 µM | [18] 11.5 µM | [19] 14.2 µM | [20] 8.59 µM

C=CC(=O)C#CC#CC/C=C\CCCCCCC
inactive: [1] > 6.52 µM | [2] 6.82 µM | [3] > 20.6 µM | [4] 7.76 µM | [5] > 14.6 µM | [6] > 20.6 µM | [7] > 20.6 µM | [8] > 20.6 µM | [9] > 20.6 µM | [10] > 20.6 µM | [11] > 20.6 µM | [12] > 11.3 µM | [13] > 20.6 µM | [14] > 20.6 µM | [15] > 20.6 µM | [16] > 20.6 µM | [17] > 20.6 µM | [18] > 20.6 µM | [19] > 20.6 µM | [20] > 20.6 µM

Oc1cc2c3c(c1)CCCN3CCC2
inactive: [1] > 10 µM | [2] > 10 µM | [3] > 10 µM | [4] > 10 µM | [5] > 10 µM | [6] > 10 µM | [7] > 10 µM | [8] > 10 µM | [9] > 10 µM | [10] > 10 µM | [11] > 10 µM | [12] > 10 µM | [13] > 10 µM | [14] > 10 µM | [15] > 10 µM | [16] > 10 µM | [17] > 10 µM | [18] > 10 µM | [19] > 10 µM | [20] > 10 µM

C/C(CC/C(C)=N/O)=N\O
inactive: [1] > 100 µM | [2] > 100 µM | [3] > 100 µM | [4] > 100 µM | [5] > 100 µM | [6] > 100 µM | [7] > 100 µM | [8] > 100 µM | [9] > 100 µM | [10] > 100 µM | [11] > 100 µM | [12] > 100 µM | [13] > 100 µM | [14] > 100 µM | [15] > 100 µM | [16] > 100 µM | [17] > 100 µM | [18] > 100 µM | [19] > 100 µM | [20] > 100 µM
